Changes are numbered by the printed parent chain. Bridge positions count the residues as written; N and C are the ends. Ends that are not written are not given here.
Key:
[1] = target: T1, K352E/H355P hGPRC6A (Homo sapiens, UniProt Q5T6X5, H355P/K352E); experiment: cAMP accumulation in HEK-293 cells transfected with K352E/H355P hGPRC6A; type: cell-based; details: for cAMP accumulation by Ocn small fragments: K352E/H355P double mutant, fragment at 20 nM, Figure 6C
T1 construct: expressed in transfected cells; host or cells: HEK-293, pcDNA3
T1 sequence (Q5T6X5 19-926 K352E/H355P): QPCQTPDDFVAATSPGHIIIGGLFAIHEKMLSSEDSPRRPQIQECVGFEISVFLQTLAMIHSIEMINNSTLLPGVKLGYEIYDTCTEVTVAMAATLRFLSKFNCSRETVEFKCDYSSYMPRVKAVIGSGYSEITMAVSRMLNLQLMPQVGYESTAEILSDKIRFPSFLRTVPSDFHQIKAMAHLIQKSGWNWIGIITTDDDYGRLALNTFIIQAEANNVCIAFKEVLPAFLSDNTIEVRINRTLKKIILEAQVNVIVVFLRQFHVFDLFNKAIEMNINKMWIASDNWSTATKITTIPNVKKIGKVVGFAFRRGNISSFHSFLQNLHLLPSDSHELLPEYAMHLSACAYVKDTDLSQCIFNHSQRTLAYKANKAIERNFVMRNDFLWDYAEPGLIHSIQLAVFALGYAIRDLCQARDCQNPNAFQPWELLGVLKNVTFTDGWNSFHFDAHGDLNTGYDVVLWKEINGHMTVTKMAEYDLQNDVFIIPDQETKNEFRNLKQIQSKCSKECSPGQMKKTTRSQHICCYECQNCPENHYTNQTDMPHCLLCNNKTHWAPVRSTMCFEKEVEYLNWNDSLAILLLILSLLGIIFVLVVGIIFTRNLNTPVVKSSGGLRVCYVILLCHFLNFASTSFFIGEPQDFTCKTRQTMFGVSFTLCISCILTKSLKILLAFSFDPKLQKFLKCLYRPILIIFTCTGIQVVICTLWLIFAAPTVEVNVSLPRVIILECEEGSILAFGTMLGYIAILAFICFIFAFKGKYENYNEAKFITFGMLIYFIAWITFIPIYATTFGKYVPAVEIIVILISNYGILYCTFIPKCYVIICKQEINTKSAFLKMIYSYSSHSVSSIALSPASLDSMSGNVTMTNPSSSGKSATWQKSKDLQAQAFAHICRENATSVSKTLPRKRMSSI
Protocol: (§1) HEK‐293 transfected with human GPRC6A isoform cDNA plasmids cells (10^5 cells/well)[30] were cultured in 24‐well plates in DMEM supplemented with 10% fetal bovine serum and 1% penicillin/streptomycin (100 U/mL of penicillin and 100 μg/mL of streptomycin) for 48 h followed by 4 h incubation in DMEM/F12 containing 0.1% BSA and 0.5 mM IBMX to achieve quiescence and preventing cAMP degradation. Quiescent cells were treated with vehicle control, various ligands at concentration as indicated for 40 min at 37°C. Then, the reaction was stopped, and the cells lysed with 0.5 mL 0.1 N HCl. cAMP levels were measured by using Cyclic AMP EIA kit (Cayman Chemical; Ann Arbor, MA, USA) following the manufacture's protocol.
(§2) In‐vitro mutagenesis by PCR‐mediated recombination QuikChange II XL Site‐Directed Mutagenesis Kit (Agilent) was performed using the cDNA of human GPRC6A cloned in the vector pcDNA3 (Invitrogen) as a template. The primer sets are as follows. K352E.sen: […]; K352E.antisen: […]; H355P.sen: […]; H355P.antisen: […]; K352E/H355P.sen: […]; and K352E/H355P.antisen: […]. All mutants were confirmed by sequencing.

[2] = target: T2, H355P hGPRC6A (Homo sapiens, UniProt Q5T6X5, H355P); experiment: cAMP accumulation in HEK-293 cells transfected with H355P hGPRC6A; type: cell-based; details: H355P mutant; for cAMP accumulation by Ocn small fragments: fragment at 20 nM, Figure 6C
T2 construct: expressed in transfected cells; host or cells: HEK-293, pcDNA3
T2 sequence (Q5T6X5 19-926 H355P): T1 sequence (Q5T6X5 19-926 K352E/H355P) with E334K
Protocol: as §1, §2

Row | Substance | cAMP accumulation by Ocn small fragments [1] | cAMP accumulation by Ocn small fragments [2] | cAMP accumulation, dose response of full-length Ocn, versus wild-type receptor ([1]; K352E/H355P mutant, Figure 6A) | cAMP accumulation, dose response of full-length Ocn, versus wild-type receptor ([2]; Figure 6A)
1 | RFYGPV [Ocn 44–49, synthesized human Ocn C‐terminal hexapeptide] | partially activate | significantly attenuated |  | 
2 | REVCELNPDC (disulfide 4-10 (inferred)) [Ocn 20–29, synthesized human Ocn decapeptide fragment located in the middle of the protein] | no response | no response |  | 
3 | osteocalcin (YLYQWLGAPVPYPDPLEPRREVCELNPDCDELADHIGFQEAYRRFYGPV; not fully specified; ends and bridges not checked; UniProt P02818 52-100, looked up) [Ocn 1–49, full human Ocn (49 aa) synthesized by BioMatik; methods also describe decarboxylated Ocn purified from bovine tibial bone, reference compound] |  |  | significantly decreased | significantly decreased

— publication PMC11467737, “Osteocalcin binds to a GPRC6A Venus fly trap allosteric site to positively modulate GPRC6A signaling” (FASEB BioAdvances, 2024)
